Literature values, collected in patent US7205293B2, “Benodiazepine spirohydantoin CGRP receptor antagonists” (Merck & Co., Inc., priority 2003, dated 2007).
No end group written: not given here.

Assays:
facial blood flow [1] = conditions: marmoset, electrical stimulation of the trigeminal ganglion
[2] = test system: middle meningeal artery diameter; conditions: rats, electrical stimulation of the dura mater, prior administration
facial blood flow [3] = conditions: rat, trigeminal ganglion stimulation

**Q.** With `NCCCC[C@H](NC(=O)[C@@H](Cc1cc(Br)c(O)c(Br)c1)NC(=O)N1CCC(N2Cc3ccccc3NC2=O)CC1)C(=O)N1CCN(c2ccncc2)CC1` [BIBN4096BS] as the compound, how does the “effect on increase in facial blood flow” value (facial blood flow [1]) read?
**A.** blocked

**Q.** What does the source list for “CGRP(8–37): a peptide CGRP antagonist (VTHRLAGLLSRSGGVVKNNFVPTNVGSKAF; ends and bridges not checked; UniProt P06881 90-119, looked up, fragment)”?
**A.** effect on increase of middle meningeal artery diameter [2]: blocked; effect on increase of facial blood flow (facial blood flow [3]): inhibited
